#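 Where inhibition never reached the appropriate level, the endpoint shown equals the highest concentration tested. Otherwise, values were interpolated linearly from a five-concentration, 48-hour dose response in 96-well plates. Here, GI50 denotes the concentration required for 50% inhibition of growth. TGI: total growth inhibition.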
# Experiments:
# Assay in all cases: NCI tumour cell line growth inhibition, 48 h
# SK-OV-3 ovarian = system: SK-OV-3 ovarian
# IGROV1 ovarian = system: IGROV1 ovarian
# TK-10 renal = system: TK-10 renal
# UACC-62 melanoma = system: UACC-62 melanoma
# SK-MEL-5 melanoma = system: SK-MEL-5 melanoma
# HL-60(TB) leukemia = system: HL-60(TB) leukemia
# MDA-MB-435 = system: MDA-MB-435
# OVCAR-5 ovarian = system: OVCAR-5 ovarian
# OVCAR-3 ovarian = system: OVCAR-3 ovarian
# SN12C renal = system: SN12C renal
# 786-0 renal = system: 786-0 renal
# EKVX NSCLC = system: EKVX NSCLC
# DU-145 prostate = system: DU-145 prostate
# NCI-H23 lung = system: NCI-H23 lung
# OVCAR-8 ovarian = system: OVCAR-8 ovarian
# NCI-H522 lung = system: NCI-H522 lung
# SR leukemia = system: SR leukemia
# NCI/ADR-RES ovarian = system: NCI/ADR-RES ovarian
# SK-MEL-28 melanoma = system: SK-MEL-28 melanoma
# MCF7 breast = system: MCF7 breast
# U251 CNS = system: U251 CNS
# OVCAR-4 ovarian = system: OVCAR-4 ovarian
# RPMI-8226 leukemia = system: RPMI-8226 leukemia
# ACHN renal = system: ACHN renal
# KM12 colon = system: KM12 colon
# K-562 leukemia = system: K-562 leukemia
# HCT-15 colon = system: HCT-15 colon
# SF-295 CNS = system: SF-295 CNS
# SF-539 CNS = system: SF-539 CNS
# MALME-3M melanoma = system: MALME-3M melanoma
# RXF 393 renal = system: RXF 393 renal
# NCI-H460 lung = system: NCI-H460 lung
# HOP-92 NSCLC = system: HOP-92 NSCLC
# SK-MEL-2 melanoma = system: SK-MEL-2 melanoma
# HOP-62 NSCLC = system: HOP-62 NSCLC
# CAKI-1 renal = system: CAKI-1 renal
# COLO 205 colon = system: COLO 205 colon
# BT-549 breast = system: BT-549 breast
# UO-31 renal = system: UO-31 renal
# A549 NSCLC = system: A549 NSCLC
# HS 578T breast = system: HS 578T breast
# MDA-MB-231 breast = system: MDA-MB-231 breast
# PC-3 prostate = system: PC-3 prostate
# HCC-2998 colon = system: HCC-2998 colon
# MOLT-4 leukemia = system: MOLT-4 leukemia
# SF-268 CNS = system: SF-268 CNS
# SW-620 colon = system: SW-620 colon
# A498 renal = system: A498 renal
# SNB-75 CNS = system: SNB-75 CNS
# HCT-116 colon = system: HCT-116 colon
# HT29 colon = system: HT29 colon
# UACC-257 melanoma = system: UACC-257 melanoma
# NCI-H226 lung = system: NCI-H226 lung
# T-47D breast = system: T-47D breast
# M14 melanoma = system: M14 melanoma
# LOX IMVI melanoma = system: LOX IMVI melanoma
# CCRF-CEM leukemia = system: CCRF-CEM leukemia
# SNB-19 CNS = system: SNB-19 CNS
structure (smiles),measurement,setting,value
NC(=O)c1c(NC(=O)c2ccc(C3CCCCC3)cc2)sc2c1CCC(=O)C2,GI50,SK-OV-3 ovarian,1.18 µM
same,TGI,SK-OV-3 ovarian,5.89 µM
same,GI50,IGROV1 ovarian,0.434 µM
same,TGI,IGROV1 ovarian,2.03 µM
same,GI50,TK-10 renal,0.373 µM
same,TGI,TK-10 renal,2.3 µM
same,GI50,UACC-62 melanoma,0.276 µM
same,TGI,UACC-62 melanoma,1.43 µM
same,GI50,SK-MEL-5 melanoma,0.63 µM
same,TGI,SK-MEL-5 melanoma,1.77 µM
same,GI50,HL-60(TB) leukemia,0.307 µM
same,TGI,HL-60(TB) leukemia,> 30.8 µM
same,GI50,MDA-MB-435,0.611 µM
same,TGI,MDA-MB-435,2.17 µM
same,GI50,OVCAR-5 ovarian,0.402 µM
same,TGI,OVCAR-5 ovarian,1.98 µM
same,GI50,OVCAR-3 ovarian,0.389 µM
same,TGI,OVCAR-3 ovarian,2.62 µM
same,GI50,SN12C renal,0.438 µM
same,TGI,SN12C renal,2.83 µM
same,GI50,786-0 renal,0.663 µM
same,TGI,786-0 renal,2.87 µM
same,GI50,EKVX NSCLC,0.502 µM
same,TGI,EKVX NSCLC,3.21 µM
same,GI50,DU-145 prostate,1.73 µM
same,TGI,DU-145 prostate,> 100 µM
same,GI50,NCI-H23 lung,0.314 µM
same,TGI,NCI-H23 lung,4.34 µM
same,GI50,OVCAR-8 ovarian,0.38 µM
same,TGI,OVCAR-8 ovarian,> 20.2 µM
same,GI50,NCI-H522 lung,0.227 µM
same,TGI,NCI-H522 lung,1.45 µM
same,GI50,SR leukemia,0.108 µM
same,GI50,NCI/ADR-RES ovarian,0.36 µM
same,TGI,NCI/ADR-RES ovarian,5.04 µM
same,GI50,SK-MEL-28 melanoma,0.509 µM
same,TGI,SK-MEL-28 melanoma,2.15 µM
same,GI50,MCF7 breast,0.292 µM
same,TGI,MCF7 breast,2.53 µM
same,GI50,U251 CNS,0.246 µM
same,TGI,U251 CNS,1.62 µM
same,GI50,OVCAR-4 ovarian,0.377 µM
same,TGI,OVCAR-4 ovarian,1.71 µM
same,GI50,RPMI-8226 leukemia,0.135 µM
same,TGI,RPMI-8226 leukemia,0.596 µM
same,GI50,ACHN renal,0.164 µM
same,TGI,ACHN renal,0.598 µM
same,GI50,KM12 colon,0.349 µM
same,TGI,KM12 colon,5.26 µM
same,GI50,K-562 leukemia,0.122 µM
same,TGI,K-562 leukemia,> 100 µM
same,GI50,HCT-15 colon,0.155 µM
same,TGI,HCT-15 colon,1.26 µM
same,GI50,SF-295 CNS,0.681 µM
same,TGI,SF-295 CNS,2.5 µM
same,GI50,SF-539 CNS,0.211 µM
same,TGI,SF-539 CNS,0.826 µM
same,GI50,MALME-3M melanoma,0.314 µM
same,TGI,MALME-3M melanoma,1.19 µM
same,GI50,RXF 393 renal,0.301 µM
same,TGI,RXF 393 renal,1.19 µM
same,GI50,NCI-H460 lung,0.645 µM
same,TGI,NCI-H460 lung,3.64 µM
same,GI50,HOP-92 NSCLC,0.246 µM
same,TGI,HOP-92 NSCLC,1.04 µM
same,GI50,SK-MEL-2 melanoma,0.98 µM
same,TGI,SK-MEL-2 melanoma,3.53 µM
same,GI50,HOP-62 NSCLC,1.48 µM
same,TGI,HOP-62 NSCLC,24.1 µM
same,GI50,CAKI-1 renal,0.248 µM
same,TGI,CAKI-1 renal,1.47 µM
same,GI50,COLO 205 colon,0.208 µM
same,TGI,COLO 205 colon,0.65 µM
same,GI50,BT-549 breast,0.283 µM
same,TGI,BT-549 breast,1.39 µM
same,GI50,UO-31 renal,0.177 µM
same,TGI,UO-31 renal,0.69 µM
same,GI50,A549 NSCLC,0.419 µM
same,TGI,A549 NSCLC,6.08 µM
same,GI50,HS 578T breast,0.383 µM
same,TGI,HS 578T breast,5.71 µM
same,GI50,MDA-MB-231 breast,0.384 µM
same,TGI,MDA-MB-231 breast,1.75 µM
same,GI50,PC-3 prostate,0.13 µM
same,TGI,PC-3 prostate,1.59 µM
same,GI50,HCC-2998 colon,1.1 µM
same,TGI,HCC-2998 colon,5.41 µM
same,GI50,MOLT-4 leukemia,0.357 µM
same,TGI,MOLT-4 leukemia,> 22.4 µM
same,GI50,SF-268 CNS,0.532 µM
same,TGI,SF-268 CNS,3.46 µM
same,GI50,SW-620 colon,0.142 µM
same,TGI,SW-620 colon,1.66 µM
same,GI50,A498 renal,1.99 µM
same,TGI,A498 renal,5.84 µM
same,GI50,SNB-75 CNS,1.39 µM
same,TGI,SNB-75 CNS,3.42 µM
same,GI50,HCT-116 colon,0.108 µM
same,TGI,HCT-116 colon,1.3 µM
same,GI50,HT29 colon,0.268 µM
same,TGI,HT29 colon,1.81 µM
same,GI50,UACC-257 melanoma,0.725 µM
same,TGI,UACC-257 melanoma,3.23 µM
same,GI50,NCI-H226 lung,0.705 µM
same,TGI,NCI-H226 lung,2.61 µM
same,GI50,T-47D breast,0.193 µM
same,TGI,T-47D breast,2.34 µM
same,GI50,M14 melanoma,0.371 µM
same,TGI,M14 melanoma,1.87 µM
same,GI50,LOX IMVI melanoma,0.186 µM
same,TGI,LOX IMVI melanoma,1.01 µM
same,GI50,CCRF-CEM leukemia,0.142 µM
same,GI50,SNB-19 CNS,0.426 µM
same,TGI,SNB-19 CNS,3.01 µM

# From PubChem BioAssay (NCI)
